Legend:
MKK7 = target: T1, MKK7 (Homo sapiens, UniProt O14733); experiment: KINOMEscan competition binding, selectivity against off-target MKK7 (PoC ratio MKK7/MKK4); details: compound concentration 100 nM
T1 construct: M1/R419; host or cells: HEK-293
T1 sequence (O14733 1-419): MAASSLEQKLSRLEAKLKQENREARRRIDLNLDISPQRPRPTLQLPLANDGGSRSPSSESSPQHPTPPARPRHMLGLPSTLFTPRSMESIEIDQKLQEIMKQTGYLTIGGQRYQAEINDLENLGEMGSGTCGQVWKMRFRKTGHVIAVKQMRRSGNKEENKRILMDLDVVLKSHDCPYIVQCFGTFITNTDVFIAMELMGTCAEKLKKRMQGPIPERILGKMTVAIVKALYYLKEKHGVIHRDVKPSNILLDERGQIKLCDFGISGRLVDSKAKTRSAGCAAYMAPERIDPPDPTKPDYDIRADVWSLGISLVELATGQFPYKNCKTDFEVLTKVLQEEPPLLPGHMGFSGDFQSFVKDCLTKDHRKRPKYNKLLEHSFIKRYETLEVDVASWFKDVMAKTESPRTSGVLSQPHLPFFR
Protocol: (§1) The assay was performed by combining three components: DNA-tagged kinase; immobilized ligand; and a test compound. The ability of the test compound to compete with the immobilized ligand was measured via quantitative PCR of the DNA tag. The technology is described in detail in Fabian, M. A. et al., A small molecule-kinase interaction map for clinical kinase inhibitors. Nat.
(§2) For investigation of the affinity to MKK4, MKK7 and JNK1, the kinases were produced in HEK-293 cells and subsequently tagged with DNA for qPCR detection. […] The liganded beads were blocked with excess biotin and washed with blocking buffer (SEABLOCK™ (Pierce), 1% BSA, 0.05% TWEEN®20, 1 mM DTT) to remove unbound ligand and to reduce nonspecific binding. […] All reactions were performed in polystyrene 96-well plates in a final volume of 0.135 mL. […] The kinase concentration in the eluates was measured by qPCR.
(§3) The test compounds were provided as 10 mM stock solutions. The test solutions at indicated final concentrations were prepared at DiscoverX.

JNK1 = target: T2, JNK1 (Homo sapiens, UniProt P45983); experiment: KINOMEscan competition binding, selectivity against off-target JNK1 (PoC ratio JNK1/MKK4); details: compound concentration 100 nM
T2 construct: M1/Q384; host or cells: HEK-293
Protocol: as §1, §2, §3

MKK4 = target: T3, MKK4 (Homo sapiens, UniProt P45985); experiment: KINOMEscan competition binding assay, MKK4 potency; details: compound concentration 100 nM; lower numbers indicate stronger binding
T3 construct: S84/D399; host or cells: HEK-293
T3 sequence (P45985 84-399): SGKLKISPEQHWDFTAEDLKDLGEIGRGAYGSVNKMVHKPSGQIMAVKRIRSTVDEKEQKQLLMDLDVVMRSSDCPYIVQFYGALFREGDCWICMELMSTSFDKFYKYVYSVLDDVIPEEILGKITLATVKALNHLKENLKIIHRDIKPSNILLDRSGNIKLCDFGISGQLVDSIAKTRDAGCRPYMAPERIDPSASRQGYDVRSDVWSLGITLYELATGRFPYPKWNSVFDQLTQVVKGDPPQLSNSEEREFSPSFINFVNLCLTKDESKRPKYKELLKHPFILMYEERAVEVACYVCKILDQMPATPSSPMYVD
Protocol: as §1, §2, §3

BRaf = BRaf (Homo sapiens, UniProt P15056); experiment: KINOMEscan competition binding, selectivity against off-target BRaf (PoC ratio BRaf/MKK4); details: compound concentration 100 nM
Protocol: as §1, §3

Chain of BRaf (P15056 whole entry): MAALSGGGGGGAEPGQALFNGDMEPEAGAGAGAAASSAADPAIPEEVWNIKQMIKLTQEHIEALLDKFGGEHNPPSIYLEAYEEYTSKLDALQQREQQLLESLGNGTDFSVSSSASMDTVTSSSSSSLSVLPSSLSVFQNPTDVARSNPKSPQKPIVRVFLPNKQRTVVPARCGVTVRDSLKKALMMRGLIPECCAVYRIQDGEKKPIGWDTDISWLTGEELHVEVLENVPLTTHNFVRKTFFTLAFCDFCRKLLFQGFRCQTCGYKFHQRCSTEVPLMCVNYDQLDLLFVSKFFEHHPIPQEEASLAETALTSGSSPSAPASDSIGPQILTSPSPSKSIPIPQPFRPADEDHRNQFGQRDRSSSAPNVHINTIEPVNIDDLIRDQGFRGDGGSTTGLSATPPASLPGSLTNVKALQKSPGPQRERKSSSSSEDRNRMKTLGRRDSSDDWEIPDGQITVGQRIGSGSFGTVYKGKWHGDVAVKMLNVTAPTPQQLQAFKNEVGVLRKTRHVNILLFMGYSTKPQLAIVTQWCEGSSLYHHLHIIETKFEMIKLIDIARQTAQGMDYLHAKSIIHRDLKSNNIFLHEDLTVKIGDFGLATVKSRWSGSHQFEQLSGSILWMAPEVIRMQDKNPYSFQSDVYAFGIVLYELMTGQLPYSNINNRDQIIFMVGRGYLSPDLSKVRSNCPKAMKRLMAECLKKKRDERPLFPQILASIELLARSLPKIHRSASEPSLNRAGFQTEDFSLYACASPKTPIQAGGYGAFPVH
T2 sequence (P45983 1-384 isoform P45983-2): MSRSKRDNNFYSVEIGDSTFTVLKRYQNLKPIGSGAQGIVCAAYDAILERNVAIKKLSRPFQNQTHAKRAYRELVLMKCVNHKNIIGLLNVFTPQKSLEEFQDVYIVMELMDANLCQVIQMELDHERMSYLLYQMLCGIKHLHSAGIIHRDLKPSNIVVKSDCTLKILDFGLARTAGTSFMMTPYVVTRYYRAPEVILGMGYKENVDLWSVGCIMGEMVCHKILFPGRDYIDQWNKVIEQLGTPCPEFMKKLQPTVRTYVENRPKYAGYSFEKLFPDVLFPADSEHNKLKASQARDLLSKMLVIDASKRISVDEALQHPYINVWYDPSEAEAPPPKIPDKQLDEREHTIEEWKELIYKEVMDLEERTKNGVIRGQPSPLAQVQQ

CCCS(=O)(=O)Nc1ccc(F)c(C(=O)c2ccc3[nH]c4ncc(-c5ccc(N)nc5)cc4c3c2)c1F [Example 7, N-(3-(3-(6-aminopyridin-3-yl)-9H-pyrido[2,3-b]indole-6-carbonyl)-2,4-difluorophenyl)propane-1-sulfonamide]
Selectivity vs. MKK7, ratio PoC(MKK7)/PoC(MKK4) (MKK7): +++ (PoC(MKK7)/PoC(MKK4) ≥ 30 = “+++”)
Selectivity vs. JNK1, ratio PoC(JNK1)/PoC(MKK4) (JNK1): +++ (PoC(JNK1)/PoC(MKK4) ≥ 30 = “+++”)
MKK4 residual percent of control binding (PoC) (MKK4): + + +
Selectivity vs. BRaf, ratio PoC(BRaf)/PoC(MKK4) (BRaf): +++ (PoC(BRaf)/PoC(MKK4) ≥ 30 = “+++”)

CCCS(=O)(=O)Nc1ccc(F)c(C(=O)c2ccc3[nH]c4ncc(-c5ccc(C(=O)O)cc5)cc4c3c2)c1F [Example 4n]
Selectivity vs. MKK7, ratio PoC(MKK7)/PoC(MKK4) (MKK7): +++ (PoC(MKK7)/PoC(MKK4) ≥ 30 = “+++”)
Selectivity vs. JNK1, ratio PoC(JNK1)/PoC(MKK4) (JNK1): +++ (PoC(JNK1)/PoC(MKK4) ≥ 30 = “+++”)
MKK4 residual percent of control binding (PoC) (MKK4): + + +
Selectivity vs. BRaf, ratio PoC(BRaf)/PoC(MKK4) (BRaf): +++ (PoC(BRaf)/PoC(MKK4) ≥ 30 = “+++”)

CCS(=O)(=O)Nc1ccc(F)c(C(=O)c2ccc3[nH]c4ncc(-c5ccc(S(N)(=O)=O)cc5)cc4c3c2)c1F [Example 4k]
Selectivity vs. MKK7, ratio PoC(MKK7)/PoC(MKK4) (MKK7): +++ (PoC(MKK7)/PoC(MKK4) ≥ 30 = “+++”)
Selectivity vs. JNK1, ratio PoC(JNK1)/PoC(MKK4) (JNK1): +++ (PoC(JNK1)/PoC(MKK4) ≥ 30 = “+++”)
MKK4 residual percent of control binding (PoC) (MKK4): + + +
Selectivity vs. BRaf, ratio PoC(BRaf)/PoC(MKK4) (BRaf): +++ (PoC(BRaf)/PoC(MKK4) ≥ 30 = “+++”)

CCCS(=O)(=O)Nc1ccc(F)c(C(=O)c2ccc3[nH]c4ncc(-c5ccc(OCC(O)CO)cc5)cc4c3c2)c1F (centres unmarked) [Example 4m]
Selectivity vs. MKK7, ratio PoC(MKK7)/PoC(MKK4) (MKK7): +++ (PoC(MKK7)/PoC(MKK4) ≥ 30 = “+++”)
Selectivity vs. JNK1, ratio PoC(JNK1)/PoC(MKK4) (JNK1): +++ (PoC(JNK1)/PoC(MKK4) ≥ 30 = “+++”)
MKK4 residual percent of control binding (PoC) (MKK4): + + +
Selectivity vs. BRaf, ratio PoC(BRaf)/PoC(MKK4) (BRaf): +++ (PoC(BRaf)/PoC(MKK4) ≥ 30 = “+++”)

CCCS(=O)(=O)Nc1ccc(F)c(C(=O)c2ccc3[nH]c4ncc(-c5ccc(-c6nnn[nH]6)cc5)cc4c3c2)c1F [Example 4f]
Selectivity vs. MKK7, ratio PoC(MKK7)/PoC(MKK4) (MKK7): +++ (PoC(MKK7)/PoC(MKK4) ≥ 30 = “+++”)
Selectivity vs. JNK1, ratio PoC(JNK1)/PoC(MKK4) (JNK1): +++ (PoC(JNK1)/PoC(MKK4) ≥ 30 = “+++”)
MKK4 residual percent of control binding (PoC) (MKK4): + +
Selectivity vs. BRaf, ratio PoC(BRaf)/PoC(MKK4) (BRaf): +++ (PoC(BRaf)/PoC(MKK4) ≥ 30 = “+++”)

CS(=O)(=O)Nc1c(F)ccc(C(=O)c2ccc3[nH]c4ncc(Cl)cc4c3c2)c1F [Example 9, N-(3-(3-chloro-9H-pyrido[2,3-b]indole-6-carbonyl)-2,6-difluorophenyl)methanesulfonamide]
Selectivity vs. MKK7, ratio PoC(MKK7)/PoC(MKK4) (MKK7): +++ (PoC(MKK7)/PoC(MKK4) ≥ 30 = “+++”)
Selectivity vs. JNK1, ratio PoC(JNK1)/PoC(MKK4) (JNK1): +++ (PoC(JNK1)/PoC(MKK4) ≥ 30 = “+++”)
MKK4 residual percent of control binding (PoC) (MKK4): + + +
Selectivity vs. BRaf, ratio PoC(BRaf)/PoC(MKK4) (BRaf): +++ (PoC(BRaf)/PoC(MKK4) ≥ 30 = “+++”)

CS(=O)(=O)Nc1ccc(F)c(C(=O)c2ccc3[nH]c4ncc(-c5ccc(S(N)(=O)=O)cc5)cc4c3c2)c1F [Example 4j]
Selectivity vs. MKK7, ratio PoC(MKK7)/PoC(MKK4) (MKK7): +++ (PoC(MKK7)/PoC(MKK4) ≥ 30 = “+++”)
Selectivity vs. JNK1, ratio PoC(JNK1)/PoC(MKK4) (JNK1): +++ (PoC(JNK1)/PoC(MKK4) ≥ 30 = “+++”)
MKK4 residual percent of control binding (PoC) (MKK4): + + +
Selectivity vs. BRaf, ratio PoC(BRaf)/PoC(MKK4) (BRaf): +++ (PoC(BRaf)/PoC(MKK4) ≥ 30 = “+++”)

CCCS(=O)(=O)Nc1cccc(C(=O)c2ccc3[nH]c4ncc(Cl)cc4c3c2)c1F [Example 8, N-(3-(3-chloro-9H-pyrido[2,3-b]indole-6-carbonyl)-2-fluorophenyl)propane-1-sulfonamide]
Selectivity vs. MKK7, ratio PoC(MKK7)/PoC(MKK4) (MKK7): +++ (PoC(MKK7)/PoC(MKK4) ≥ 30 = “+++”)
Selectivity vs. JNK1, ratio PoC(JNK1)/PoC(MKK4) (JNK1): +++ (PoC(JNK1)/PoC(MKK4) ≥ 30 = “+++”)
MKK4 residual percent of control binding (PoC) (MKK4): + (10 ≤ PoC < 30 = “+”)
Selectivity vs. BRaf, ratio PoC(BRaf)/PoC(MKK4) (BRaf): +++ (PoC(BRaf)/PoC(MKK4) ≥ 30 = “+++”)

CCCS(=O)(=O)Nc1ccc(F)c(C(=O)c2ccc3[nH]c4ncc(-c5ccc(C(N)=O)cc5)cc4c3c2)c1F [Example 4e]
Selectivity vs. MKK7, ratio PoC(MKK7)/PoC(MKK4) (MKK7): +++ (PoC(MKK7)/PoC(MKK4) ≥ 30 = “+++”)
Selectivity vs. JNK1, ratio PoC(JNK1)/PoC(MKK4) (JNK1): +++ (PoC(JNK1)/PoC(MKK4) ≥ 30 = “+++”)
MKK4 residual percent of control binding (PoC) (MKK4): + + +
Selectivity vs. BRaf, ratio PoC(BRaf)/PoC(MKK4) (BRaf): +++ (PoC(BRaf)/PoC(MKK4) ≥ 30 = “+++”)

CCCS(=O)(=O)Nc1ccc(F)c(C(=O)c2ccc3[nH]c4ncc(-c5ccncc5)cc4c3c2)c1F [Example 4a]
Selectivity vs. MKK7, ratio PoC(MKK7)/PoC(MKK4) (MKK7): +++ (PoC(MKK7)/PoC(MKK4) ≥ 30 = “+++”)
Selectivity vs. JNK1, ratio PoC(JNK1)/PoC(MKK4) (JNK1): +++ (PoC(JNK1)/PoC(MKK4) ≥ 30 = “+++”)
MKK4 residual percent of control binding (PoC) (MKK4): + + +
Selectivity vs. BRaf, ratio PoC(BRaf)/PoC(MKK4) (BRaf): +++ (PoC(BRaf)/PoC(MKK4) ≥ 30 = “+++”)

CCCS(=O)(=O)Nc1ccc(F)c(C(=O)c2ccc3[nH]c4ncc(-c5ccc(S(N)(=O)=O)cc5)cc4c3c2)c1F [Example 4b]
Selectivity vs. MKK7, ratio PoC(MKK7)/PoC(MKK4) (MKK7): +++ (PoC(MKK7)/PoC(MKK4) ≥ 30 = “+++”)
Selectivity vs. JNK1, ratio PoC(JNK1)/PoC(MKK4) (JNK1): +++ (PoC(JNK1)/PoC(MKK4) ≥ 30 = “+++”)
MKK4 residual percent of control binding (PoC) (MKK4): + +
Selectivity vs. BRaf, ratio PoC(BRaf)/PoC(MKK4) (BRaf): +++ (PoC(BRaf)/PoC(MKK4) ≥ 30 = “+++”)
